# Experimental data published in US11891601B2, “Method to enhance the transcription regulation of SUPT4H on genes containing repetitive nucleotide sequences” (National Yang-Ming University, priority 2018, dated 2024).
# Tested on: HD-Drosophila expressing mutant HTT97Q
# Assay: Rough eye phenotype in HD-Drosophila (Gmr-HTT97Q)
# Format: in vivo, Drosophila melanogaster
# Conditions: 10 μM 6CR in media, 4-day-old progenies
# Procedure: The Gmr-ga14-UAS-HTT97Q/cyo line expressing HTT97Q under the control of Gmr-gal4 in compound eyes was provided by MT SU (National Taiwan Normal University, Taipei, Taiwan). Fly stock was maintained and crossed at 25° C. on a standard cornmeal yeast agar medium.
# In each compound treatment experiment, 15 Gmr-ga14-UAS-HTT97Q/cyo male flies were crossed with 15 Gmr-ga14-UAS-HTT-97Q/cyo females in a vial containing 10 mL of media supplemented with the testing compound at a final concentration of 10 μM 6CR (Sigma) or/and 100 μM Tropolone (Sigma). 6-chloropurine riboside (6CR) is a chemical reagent that inhibits the activity of SUPT4H by preventing the complex formation of SUPT4H/SUPT5H (Patent No.: US2018/0064744A1). Parent flies were removed after 7 days, and 4-day-old progenies carrying one Gmr-ga14-UAS-HTT97Q allele were collected for eye morphology examination. […] In each treatment group, flies were analyzed and normalized with control flies. […]
# Please refer to FIG. 8. […] After parent fly removal, the 4-day-old progenies carrying one Gmr-ga14-UAS-HTT97Q allele were collected and analyzed for eye morphology. […] 4-day-old progenies as described above were collected and analyzed the levels of mutant HTT by Western blotting. α-tubulin was included and served as a loading control. […]
smiles,measurement,value
"OC[C@H]1O[C@@H](n2cnc3c(Cl)ncnc32)[C@H](O)[C@@H]1O [6-chloropurine riboside (6CR), 6-chloropurine riboside]","rescue of rough eye phenotype, 6CR alone",rescue effect
